Reference: patent publication US10745401B2, “Condensed lactam derivative” (Sumitomo Dainippon Pharma Co., Ltd., priority 2018, dated 2020)

Experiments:
[1] = Test 4: metabolic stability test in human hepatic microsome; type: in vitro ADME; details: 0.1 mg/mL microsome, 0.1 μmol/L compound, 37° C., 30 minutes
Procedure, shortened: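 Compound at 0.1 μmol/L incubated 30 min at 37° C with human liver microsomes (0.1 mg/mL) and NADPH (3.2 mmol/L) in 25 mmol/L phosphate buffer, pH 7.4. Residual compound measured by LC-MS; stability (mL/min/mg protein) = −LN(residual ratio)/30/0.1.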

human 5-HT2A receptor [2] = target: T1, human 5-HT2A receptor (Homo sapiens (Human), UniProt P28223); test: Test 3: antagonist activity for human 5-HT2A receptor (aequorin luminescence, CHO-K1 cells); type: cell-based; details: CHO-K1 cells, 1 nmol/L 5-HT
Experimental: Test 3: Evaluation of Antagonist Activity for Human 5-HT2A Receptor
Aequorin, Gα16 protein, and each receptor were transiently expressed in CHO-K1 cells (Chinese hamster ovary). […] Each compound dissolved in DMSO was added thereto, and changes in luminescence were measured by FDSS/μCELL functional drug screening system (Hamamatsu Photonics K.K.). Antagonist activity was calculated from the following formula. Antagonist activity (%)=100×{(Luminescence of well in the presence of 1 nmol/L 5-HT−Luminescence of well containing solvent)−(Luminescence of well in the presence of test compound and 1 nmol/L 5-HT−Luminescence of well containing solvent)}/(Luminescence of well in the presence of 1 nmol/L 5-HT−Luminescence of well containing solvent)

human 5-HT1A receptor [3] = target: T2, human 5-HT1A receptor (Homo sapiens (Human), UniProt P08908); test: Test 2: agonist activity for human 5-HT1A receptor ([35S]GTPγS binding); type: biochemical; details: for EC50: [35S]GTPγS binding, concentration at which half the activity of Emax was obtained; for Emax at 10 µM: agonist activity in the presence of 10 μM of compound, relative to 100 μmol/L 5-HT
Procedure, shortened: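 Membranes from CHO cells expressing human 5-HT1A incubated with compound, GDP-containing buffer and [35S]GTPγS for 60 min at room temperature. Bound radioactivity collected by glass-fibre filtration and counted by liquid scintillation; agonist activity derived from a formula.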

human 5-HT2A receptor [4] = target: T1, human 5-HT2A receptor; test: Test 1: binding activity for human 5-HT2A receptor ([3H]Ketanserin, CHO cell membrane fraction)
Experimental: Test 1: Evaluation of Binding Activity for Human 5-HT1A Receptor, Human 5-HT2A Receptor, and Human D2 Receptor
Binding affinity of the present compound for human 5-HT1A receptor, human 5-HT2A receptor, and human D2 receptor was measured by the following procedures.
Each mixture was incubated at room temperature for 60 minutes. Then, the mixture was added quickly on a glassfiber filter plate (Multiscreen FB, Millipore, Inc.) coated with 0.3% aqueous polyethylenimine, and vacuum-filtered. Radioactivity remaining on the filter was measured with a liquid scintillation counter (PerkinElmer, Inc.). Binding inhibition rate was calculated from the following formula.
Ki of each compound was calculated from the following formula. Binding inhibition constant (Ki)=IC50/(1+S/Kd) wherein S is concentration of ligand; Kd is a binding dissociation constant of ligand to membrane, which is calculated from a saturated binding experiment conducted with the same cell membrane. A small Ki value means strong binding ability to a receptor.

human D2 receptor = human D2 receptor (Homo sapiens (Human), UniProt P14416); test: Test 1: binding activity for human D2 receptor ([3H]Spiperone, CHO cell membrane fraction); details: for Ki: human D2 receptor, [3H]Spiperone; for D2 Ki/5-HT1A Ki / D2 Ki/5-HT2A Ki: selectivity ratio
Procedure, shortened: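 CHO-cell membranes with [3H]ketanserin (5-HT2A) or [3H]spiperone (D2) were incubated with compound for 60 min at room temperature, then filtered, and bound radioactivity was counted by scintillation. Ki = IC50/(1+S/Kd), with ligand Kd from saturation binding on the same membranes.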

human 5-HT1A receptor [5] = target: T2, human 5-HT1A receptor; test: Test 1: binding activity for human 5-HT1A receptor ([3H]8-OH-DPAT, CHO cell membrane fraction)
Procedure, shortened: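 Membranes incubated with [3H]8-OH-DPAT and compound for 60 min at room temperature, then filtered on polyethylenimine-coated glass-fibre plates and counted by liquid scintillation. IC50 from Hill analysis; Ki = IC50/(1+S/Kd), Kd from saturation binding on the same membranes.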

hERG channel = hERG channel (Homo sapiens (Human), UniProt Q12809); test: Test 6-1: inhibitory activity for hERG channel (auto patch clamp, Qpatch); type: cell-based; details: for IC50: whole cell auto patch clamp, hERG-CHO cells, read-out: hERG inhibition IC50
Procedure, shortened: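 Whole-cell patch clamp on an automated system using CHO cells stably expressing human hERG (IKr); 15 s pulse interval. Four increasing compound concentrations applied cumulatively; mean peak tail current from last 3 stimulations per concentration used. IC50 from inhibition versus pre-compound current, fitted by Hill equation.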

Chain of human D2 receptor (P14416 whole entry): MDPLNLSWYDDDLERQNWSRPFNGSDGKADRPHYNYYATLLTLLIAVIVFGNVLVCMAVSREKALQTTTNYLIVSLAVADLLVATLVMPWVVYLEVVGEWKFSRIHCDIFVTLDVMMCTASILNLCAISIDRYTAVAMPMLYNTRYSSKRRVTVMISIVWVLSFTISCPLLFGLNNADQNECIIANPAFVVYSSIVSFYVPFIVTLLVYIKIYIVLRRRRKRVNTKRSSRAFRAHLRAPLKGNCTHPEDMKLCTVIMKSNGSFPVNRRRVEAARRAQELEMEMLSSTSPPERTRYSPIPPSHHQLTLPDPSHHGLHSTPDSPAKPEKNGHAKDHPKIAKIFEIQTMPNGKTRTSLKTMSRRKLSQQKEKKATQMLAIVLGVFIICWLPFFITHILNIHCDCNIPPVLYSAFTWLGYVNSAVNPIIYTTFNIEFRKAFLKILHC
T1 sequence (P28223 whole entry): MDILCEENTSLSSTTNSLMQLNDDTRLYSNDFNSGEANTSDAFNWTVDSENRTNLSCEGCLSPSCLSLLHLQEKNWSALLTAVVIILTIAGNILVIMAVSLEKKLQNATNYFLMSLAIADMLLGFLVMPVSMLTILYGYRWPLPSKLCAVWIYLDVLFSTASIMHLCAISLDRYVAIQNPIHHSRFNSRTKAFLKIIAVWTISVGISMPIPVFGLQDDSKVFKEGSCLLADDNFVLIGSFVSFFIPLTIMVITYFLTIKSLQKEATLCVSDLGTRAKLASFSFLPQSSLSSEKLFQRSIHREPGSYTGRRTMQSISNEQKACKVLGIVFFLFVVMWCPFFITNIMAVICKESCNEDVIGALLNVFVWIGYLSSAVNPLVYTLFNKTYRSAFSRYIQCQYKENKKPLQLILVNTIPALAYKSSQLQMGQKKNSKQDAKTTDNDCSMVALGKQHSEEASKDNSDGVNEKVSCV
Chain of hERG channel (Q12809 whole entry): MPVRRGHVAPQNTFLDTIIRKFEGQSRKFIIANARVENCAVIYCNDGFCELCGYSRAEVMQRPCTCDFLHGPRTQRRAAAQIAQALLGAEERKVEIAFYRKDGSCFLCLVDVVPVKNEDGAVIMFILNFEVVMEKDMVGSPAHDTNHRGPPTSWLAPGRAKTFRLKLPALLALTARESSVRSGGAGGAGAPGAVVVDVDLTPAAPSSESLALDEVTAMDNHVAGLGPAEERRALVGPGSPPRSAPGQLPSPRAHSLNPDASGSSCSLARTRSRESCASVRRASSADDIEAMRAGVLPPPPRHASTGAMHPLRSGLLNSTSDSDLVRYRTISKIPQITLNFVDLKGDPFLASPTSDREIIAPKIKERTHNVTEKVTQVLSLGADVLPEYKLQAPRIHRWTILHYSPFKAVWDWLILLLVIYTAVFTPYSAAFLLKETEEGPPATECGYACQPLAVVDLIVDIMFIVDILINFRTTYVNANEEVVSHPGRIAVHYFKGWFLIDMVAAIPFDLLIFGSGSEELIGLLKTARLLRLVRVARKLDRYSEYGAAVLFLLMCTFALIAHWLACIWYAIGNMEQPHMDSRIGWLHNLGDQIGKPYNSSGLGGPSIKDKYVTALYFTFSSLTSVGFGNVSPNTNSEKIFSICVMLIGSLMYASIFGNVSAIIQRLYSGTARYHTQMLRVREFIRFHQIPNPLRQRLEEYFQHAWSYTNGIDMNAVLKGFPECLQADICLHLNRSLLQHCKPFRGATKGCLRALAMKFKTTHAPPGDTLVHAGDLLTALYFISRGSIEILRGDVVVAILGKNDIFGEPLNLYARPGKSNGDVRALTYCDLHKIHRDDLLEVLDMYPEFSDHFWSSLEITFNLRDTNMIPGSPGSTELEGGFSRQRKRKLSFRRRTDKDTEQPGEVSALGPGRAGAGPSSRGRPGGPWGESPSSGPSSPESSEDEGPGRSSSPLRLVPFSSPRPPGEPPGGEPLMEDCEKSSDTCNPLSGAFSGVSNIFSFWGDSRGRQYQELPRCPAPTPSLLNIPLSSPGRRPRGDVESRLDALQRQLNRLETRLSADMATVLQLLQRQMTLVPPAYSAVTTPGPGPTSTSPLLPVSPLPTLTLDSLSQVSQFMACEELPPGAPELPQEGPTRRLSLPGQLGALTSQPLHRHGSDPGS
T2 sequence (P08908 whole entry): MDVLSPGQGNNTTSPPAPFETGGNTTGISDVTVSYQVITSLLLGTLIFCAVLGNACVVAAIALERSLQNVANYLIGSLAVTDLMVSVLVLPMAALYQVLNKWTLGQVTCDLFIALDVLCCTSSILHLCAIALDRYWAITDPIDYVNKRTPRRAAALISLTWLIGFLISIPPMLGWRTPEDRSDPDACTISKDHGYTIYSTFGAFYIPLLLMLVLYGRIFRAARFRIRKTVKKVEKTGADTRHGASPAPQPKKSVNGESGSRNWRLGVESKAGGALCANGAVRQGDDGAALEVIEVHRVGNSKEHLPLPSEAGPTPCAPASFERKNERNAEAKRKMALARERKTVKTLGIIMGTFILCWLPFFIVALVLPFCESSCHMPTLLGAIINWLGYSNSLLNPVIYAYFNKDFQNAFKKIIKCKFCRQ

Structure (SMILES)	Metabolic stability in human hepatic microsome [1] [mL/min/mg protein]	IC50 (human 5-HT2A receptor [2]; aequorin luminescence) [nM]	EC50 (human 5-HT1A receptor [3]) [nM]	Emax at 10 µM (human 5-HT1A receptor [3]) [%]	Ki (human 5-HT2A receptor [4]) [nM]	Ki (human D2 receptor) [nM]	D2 Ki/5-HT1A Ki (human D2 receptor)	D2 Ki/5-HT2A Ki (human D2 receptor)	Ki (human 5-HT1A receptor [5]) [nM]	IC50 (hERG channel) [nM]	IC50 (human 5-HT2A receptor [2]) [nM]	hERG inhibition IC50 (nmol/L)/5-HT1A Ki (nmol/L) (hERG channel; ratio of hERG IC50 to 5-HT1A Ki)	hERG inhibition IC50 (nmol/L)/5-HT2A Ki (nmol/L) (hERG channel; ratio of hERG IC50 to 5-HT2A Ki)
CC(C)c1ncc2c(n1)CCN(CCN1CCN(c3nsc4ccccc34)CC1)C2=O [Example 180]	0.469	72.7	1260	37	4.28	1560	48.3	363.5	32.2				
Cc1cc2ccn(CCN3CCN(c4noc5ccccc45)CC3)c(=O)c2cn1 [Example 113, 2-{2-[4-(1,2-Benzoisoxazol-3-yl)piperazin-1-yl]ethyl}-6-methyl-2,7-naphthyridin-1(2H)-one]	0.079		16	67	3.7				14.4	7000	8.63		
CC1(CCN2CCN(c3noc4ccccc34)CC2)CCc2cccnc2C1=O (stereo not shown) [Example 145]	0.302	19	55.1	58	1.15				38.1	> 3000			
O=C1c2cccnc2CCN1CCN1CCC(c2noc3cc(F)ccc23)CC1 [Example 121]	<0.05	57.4			105				60.9	< 300			
O=c1c2cnc(C(F)(F)F)cc2ccn1CCN1CCN(c2noc3ccccc23)CC1 [Example 173]		184	40.8	50	22.8	> 10000	>259.1	>438.0	38.6				
O=C1c2cnccc2CCN1CCN1CCN(c2nsc3ccccc23)CC1 [Example 18]	0.124		18	90	3.7				10.6	5900	36		
Cn1ncc2c1CCC(CCN1CCC(c3noc4ccccc34)CC1)C2=O (stereo not shown) [Example 28]	0.017		7.59	94	1.4				13.8	1400	9.8		
Cc1ncc2c(=O)n(CCN3CCN(c4noc5ccccc45)CC3)ccc2n1 [Example 193, 6-{2-[4-(1,2-Benzoisoxazol-3-yl)piperazin-1-yl]ethyl}-2-methylpyrido[4,3-d]pyrimidin-5(6H)-one]		143	756	27	122	> 10000	>25.8	>81.7	387				
Cc1ncc2c(n1)CCN(CCN1CCN(c3noc4ccccc34)CC1)C2=O [Example 179]	<0.05	70.8			22.9	> 10000	>35.3	>437.6	283	> 10000		>35	>438
Cc1noc2c1C(=O)N(CCN1CCC(c3noc4ccccc34)CC1)CCC2 [Example 38]	0.136		395	56	4.44				13.5	500	24		
O=C1c2ncccc2CCC1CCN1CCC(c2noc3ccccc23)CC1 (stereo not shown) [Example 24]	0.018		63.2	31	3.55				13.2	400	33		
